In patent publication US12590062B2, “PD-1/PD-L1 inhibitors” (Gilead Sciences, Inc., priority 2017, dated 2026):

Experiments:
[1] = target: T1, PD-L1 (Homo sapiens, UniProt Q9NZQ7); assay: PD-L1/PD-L1 dimerization biochemical protein-protein interaction assay (ALPHA); type: binding; settings: compound-induced PD-L1 dimerization, head prints '1 nM' (0.5 nM His-tagged PD-L1 and 0.5 nM FLAG-tagged PD-L1), read-out: AC50 PDL1 Dimer Alpha 1 nM
T1 construct: determine if they can specifically dimerize the extracellular domains of PD-L1
T1 sequence (Q9NZQ7 19-238 limits assumed): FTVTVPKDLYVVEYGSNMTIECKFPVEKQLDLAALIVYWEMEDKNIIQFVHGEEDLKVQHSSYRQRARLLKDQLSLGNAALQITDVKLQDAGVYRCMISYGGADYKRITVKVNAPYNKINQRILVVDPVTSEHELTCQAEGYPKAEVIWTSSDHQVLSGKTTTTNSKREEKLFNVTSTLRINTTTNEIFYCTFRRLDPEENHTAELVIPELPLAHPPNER
T1 sequence (Q9NZQ7 19-238 limits assumed): as above
Protocol: PD-L1/PD-L1 Dimerization Biochemical Protein-Protein Interaction Assay:
Compounds were tested in biochemical protein-protein interaction assays to determine if they can specifically dimerize the extracellular domains of PD-L1. Dimerization of the proteins (His-tagged PD-L1 and FLAG-tagged PD-L1) is measured using a bead based Amplified Luminescent Proximity Homogeneous Assay (ALPHA) platform. […] Assays are performed in 25 mM Hepes (pH 7.4), 150 mM NaCl, 3.4 mM EDTA, 0.005% Tween 20, and 0.01% BSA. Final protein concentration in the assays were 0.5 nM (His tagged PD-L) and 0.5 nM (FLAG tagged PD-L1). After an assay reaction time of 2 hours at 25° C., 20 μg/mL (final assay concentration) ALPHA assay acceptor beads (anti-His coated) were added and incubated for 60 minutes at 25° C. Binding was measured following a final 60 minute incubation with 40 μg/mL (final assay concentration) ALPHA assay donor beads (anti-FLAG coated). AC50 values were calculated from the fit of the dose-response curves to a four-parameter equation (Table 3).

[2] = target: PD-1/PD-L1 (Homo sapiens, UniProt Q9NZQ7); assay: PD-1/PD-L1 biochemical protein-protein interaction assay (ALPHA); type: binding; settings: 0.3 nM His tagged PD-L1, 2.5 nM biotinylated Fc-PD-1, 60 minutes at 25° C., read-out: IC50 PD-L1-PD-1 Alpha IC50-mono PD-L1-fcP-D1
Chain of PD-1/PD-L1 (Q9NZQ7 19-238 limits assumed): as above
Procedure, shortened: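 ALPHA bead proximity assay of extracellular domains: 0.3 nM His-PD-L1 with 2.5 nM biotinylated Fc-PD-1 in 25 mM Hepes pH 7.4, 150 mM NaCl, 3.4 mM EDTA, 0.005% Tween 20, 0.01% BSA, 60 min at 25 °C. Anti-His acceptor and streptavidin donor beads added; IC50 from four-parameter fit of signal loss.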

[3] = target: T2, PD-1/PD-L1 interaction (Homo sapiens, UniProt Q9NZQ7); assay: PD-1/PD-L1 NFAT reporter co-culture assay; type: cell-based; settings: Jurkat PD-1 NFAT-luciferase cells co-cultured with aAPC-PD-L1 CHO cells, 6 hrs at 37° C.; read-out: EC50 NFAT Luciferase
T2 construct: expressed in transfected cells; host or cells: CHO cells (aAPC-PD-L1) co-cultured with Jurkat cells overexpressing PD-1 and an NFAT-luciferase reporter
T2 sequence (Q9NZQ7 19-290): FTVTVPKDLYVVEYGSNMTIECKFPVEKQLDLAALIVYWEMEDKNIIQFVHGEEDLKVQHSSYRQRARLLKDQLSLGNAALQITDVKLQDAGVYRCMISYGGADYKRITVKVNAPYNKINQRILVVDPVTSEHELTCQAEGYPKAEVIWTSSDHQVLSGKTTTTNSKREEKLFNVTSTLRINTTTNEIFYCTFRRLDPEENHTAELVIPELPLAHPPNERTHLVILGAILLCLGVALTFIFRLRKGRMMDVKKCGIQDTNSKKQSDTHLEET
Procedure, shortened: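 Compounds are scored by restoration of NFAT-luciferase signal in PD-1-expressing Jurkat cells cultured 6 h at 37 °C on CHO cells presenting anti-CD3 and PD-L1; EC50 values derive from four-parameter curve fitting.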

SMILES | AC50 [1] [nM] | IC50 [2] [nM] | EC50 [3] [nM]
Cc1c(COc2cc(OCc3cncc(C#N)c3)c(CNC[C@@H](O)CC(=O)O)cc2Cl)cccc1-c1cccc(-c2ccc3c(CNC[C@@H](O)CC(=O)O)cccc3c2)c1C [Example 293, (S)-4-(((6-(3′-((4-((((S)-3-carboxy-2-hydroxypropyl)amino)methyl)-2-chloro-5-((5-cyanopyridin-3-yl)methoxy)phenoxy)methyl)-2,2′-dimethyl-[1,1′-biphenyl]-3-yl)naphthalen-1-yl)methyl)amino)-3-hydroxybutanoic acid] | 125 | 0.226 | 73
Cc1c(COc2cc(O)c(CNCCCP(=O)(O)O)cc2Cl)cccc1-c1cccc(COc2cc(OCc3cncc(C#N)c3)c(CNCCCP(=O)(O)O)cc2Cl)c1C [Example 294, (3-((5-chloro-4-((3′-((2-chloro-5-((5-cyanopyridin-3-yl)methoxy)-4-(((3-phosphonopropyl)amino)methyl)phenoxy)methyl)-2,2′-dimethyl-[1,1′-biphenyl]-3-y)methoxy)-2-hydroxybenzyl)amino)propyl)phosphonic acid] | 547 | 9.24 | 714
C[C@@](CO)(NCc1cc(Cl)c(O[C@H]2CCc3c(-c4cccc5c4CC[C@@H]5Oc4nc(OCc5cncc(C#N)c5)c(CNCCO)cc4Cl)cccc32)nc1OCc1cncc(C#N)c1)C(=O)O [Example 295] | 67.6 | 0.312 | 279
Cc1c(COc2cc(OCc3cncc(C#N)c3)c(CNC[C@@H](O)CC(=O)O)cc2Cl)cccc1-c1cccc(-c2cnc3c(Cl)cc(CNC[C@@H](O)CC(=O)O)cc3c2)c1C [Example 297, (S)-4-(((3-(3′-((4-((((S)-3-carboxy-2-hydroxypropyl)amino)methyl)-2-chloro-5-((5-cyanopyridin-3-yl)methoxy)phenoxy)methyl)-2,2′-dimethyl-[1,1′-biphenyl]-3-yl)-8-chloroquinolin-6-yl)methyl)amino)-3-hydroxybutanoic acid] | 187 | 0.187 | 266
CS(=O)(=O)c1cncc(COc2nc(OCc3cccc(-c4cccc(-c5ccc(OCCNCCO)cc5)c4Cl)c3Cl)c(Cl)cc2CN2C[C@@H](O)C[C@H]2C(=O)O)c1 [Example 303, (2S,4S)-1-((5-chloro-6-((2,2′-dichloro-4″-(2-((2-hydroxyethyl)amino)ethoxy)-[1,1′:3′,1″-terphenyl]-3-yl)methoxy)-2-((5-(methylsulfonyl)pyridin-3-yl)methoxy)pyridin-3-yl)methyl)-4-hydroxypyrrolidine-2-carboxylic acid] | 101 | 0.166 | 289
CC(C)(NCc1cc(Cl)c(OCc2cccc(-c3cccc(-c4ccc(OCCNCCO)cc4)c3Cl)c2Cl)nc1OCc1cncc(S(C)(=O)=O)c1)C(=O)O [Example 304, 2-(((5-chloro-6-((2,2′-dichloro-4″-(2-((2-hydroxyethyl)amino)ethoxy)-[1,1′:3′,1″-terphenyl]-3-yl)methoxy)-2-((5-(methylsulfonyl)pyridin-3-yl)methoxy)pyridin-3-yl)methyl)amino)-2-methylpropanoic acid] | 16.5 | 0.064 | 79
Cc1c(COc2nc(OCc3cncc(C#N)c3)c(CNCCO)cc2Cl)cccc1-c1cccc(-c2ccc(C(O)CN(C)C)cc2)c1C (stereo not drawn) [Example 306, 5-(((5-chloro-6-((4″-(2-(dimethylamino)-1-hydroxyethyl)-2,2′-dimethyl-[1,1′:3′,1″-terphenyl]-3-yl)methoxy)-3-(((2-hydroxyethyl)amino)methyl)pyridin-2-yl)oxy)methyl)nicotinonitrile] | 292 | 1.97 | 547
COc1nc(-c2cccc(-c3cccc(COc4cc(OCc5cncc(C#N)c5)c(CN5CC[C@@H](O)C5)cc4Cl)c3C)c2C)ccc1CNC[C@@H](O)CC(=O)O [Example 307, (S)-4-(((6-(3′-((2-chloro-5-((5-cyanopyridin-3-yl)methoxy)-4-(((R)-3-hydroxypyrrolidin-1-yl)methyl)phenoxy)methyl)-2,2′-dimethyl-[1,1′-biphenyl]-3-yl)-2-methoxypyridin-3-yl)methyl)amino)-3-hydroxybutanoic acid] | 599 | 0.536 | 702

Now from value to compound:

AC50 [1] [nM] | IC50 [2] [nM] | EC50 [3] [nM] | SMILES
108 | 0.064 | 844 | Cc1c(COc2cc(OCc3cncc(C#N)c3)c(CN[C@@](C)(CO)C(=O)O)cc2Cl)cccc1-c1cccc(-c2cnc3c(Cl)cc(CN[C@@](C)(CO)C(=O)O)cc3c2)c1C [Example 296, (S)-2-(((3-(3′-((4-((((S)-2-carboxy-1-hydroxypropan-2-yl)amino)methyl)-2-chloro-5-((5-cyanopyridin-3-yl)methoxy)phenoxy)methyl)-2,2′-dimethyl-[1,1′-biphenyl]-3-yl)-8-chloroquinolin-6-yl)methyl)amino)-3-hydroxy-2-methylpropanoic acid]
162 | 0.761 | 326 | Cc1c(COc2cc(OCc3cncc(C#N)c3)c(CN[C@@](C)(CO)C(=O)O)cc2Cl)cccc1-c1cccc(-c2ccc3[nH]c([C@@H]4CCCN4)nc3c2)c1C [Example 299, (S)-2-((5-chloro-2-((5-cyanopyridin-3-yl)methoxy)-4-((2,2′-dimethyl-3′-(2-((S)-pyrrolidin-2-yl)-1H-benzo[d]imidazol-5-yl)-[1,1′-biphenyl]-3-yl)methoxy)benzyl)amino)-3-hydroxy-2-methylpropanoic acid]
223 | 0.673 | 3720 | Cc1c(COc2cc(OCc3cncc(C#N)c3)c(CNC[C@@H](O)CC(=O)O)cc2Cl)cccc1-c1cccc(-c2ccc(CCN3CCCC3)cc2)c1C [Example 300, (S)-4-((5-chloro-2-((5-cyanopyridin-3-yl)methoxy)-4-((2,2′-dimethyl-4″-(2-(pyrrolidin-1-yl)ethyl)-[1,1′:3′,1″-terphenyl]-3-yl)methoxy)benzyl)amino)-3-hydroxybutanoic acid]
95.9 | 0.109 | 1020 | Cc1c(COc2cc(OCc3cncc(C#N)c3)c(CN[C@@](C)(CO)C(=O)O)cc2Cl)cccc1-c1c(F)ccc(-c2ccc(CN(C)C)cc2)c1Cl [Example 301, (2S)-2-((5-chloro-4-((2′-chloro-4″-((dimethylamino)methyl)-6′-fluoro-2-methyl-[1,1′:3′,1″-terphenyl]-3-yl)methoxy)-2-((5-cyanopyridin-3-yl)methoxy)benzyl)amino)-3-hydroxy-2-methylpropanoic acid]
76.2 | 0.348 | 283 | Cc1c(COc2cc(OCc3cncc(C#N)c3)c(CN[C@](C)(CO)C(=O)O)cc2Cl)cccc1-c1cccc(-c2ccc(OC3CN4CCC3CC4)cc2)c1C (stereo partly drawn) [Example 302, (2R)-2-((5-chloro-2-((5-cyanopyridin-3-yl)methoxy)-4-((2,2′-dimethyl-4″-(quinuclidin-3-yloxy)-[1,1′:3′,1″-terphenyl]-3-yl)methoxy)benzyl)amino)-3-hydroxy-2-methylpropanoic acid]
150 | 0.158 | 1770 | Cc1c(COc2nc(OCc3cncc(C#N)c3)c(CN[C@@](C)(CO)C(=O)O)cc2Cl)cccc1-c1cccc(-c2ccc3c(c2)CC[C@@]3(CO)N(C)C)c1C [Example 305, (S)-2-(((5-chloro-2-((5-cyanopyridin-3-yl)methoxy)-6-((3′-((R)-1-(dimethylamino)-1-(hydroxymethyl)-2,3-dihydro-1H-inden-5-yl)-2,2′-dimethyl-[1,1′-biphenyl]-3-yl)methoxy)pyridin-3-yl)methyl)amino)-3-hydroxy-2-methylpropanoic acid]
203 | 0.346 | 373 | Cc1c(COc2cc(OCc3cncc(C#N)c3)c(CN3CC[C@@H](O)C3)cc2Cl)cccc1-c1cccc(-c2ccc(CNC[C@@H](O)CC(=O)O)cc2)c1C [Example 308, (S)-4-(((3″-((2-chloro-5-((5-cyanopyridin-3-yl)methoxy)-4-(((R)-3-hydroxypyrrolidin-1-yl)methyl)phenoxy)methyl)-2′,2″-dimethyl-[1,1′:3′,1″-terphenyl]-4-yl)methyl)amino)-3-hydroxybutanoic acid]
